Reference: patent publication US7413853B2, “Modulation of metabolism of steroids and xenobiotics” (The Salk Institute for Biological Studies, priority 2001, dated 2008)
“Also recorded” adds a separate entry of the source. Like-named read-outs stand apart in the source and are kept apart here.

What was measured:
[1] = system: rat CYP3A23 gene cellular promoter
Protocol: The PCR-amplified sequences and target mutagenesis were confirmed by DNA sequencing.
(§1) All compounds were purchased from Sigma.
The above notion would predict: (1) The SXR/PXR response element is essential for the activation of CYP3A genes; and (2) The response elements of SXR and PXR are interchangeable. Therefore, mutagenesis analysis was performed on the promoter of the rat CYP3A23 gene to examine these predictions.

[2] = target: T1, GR (Homo sapiens, UniProt P04150); test: Activity of corticosterone catabolites on GR; format: cell-based; details: reduced or hydroxylated corticosterone derivatives
T1 sequence (P04150 1-777): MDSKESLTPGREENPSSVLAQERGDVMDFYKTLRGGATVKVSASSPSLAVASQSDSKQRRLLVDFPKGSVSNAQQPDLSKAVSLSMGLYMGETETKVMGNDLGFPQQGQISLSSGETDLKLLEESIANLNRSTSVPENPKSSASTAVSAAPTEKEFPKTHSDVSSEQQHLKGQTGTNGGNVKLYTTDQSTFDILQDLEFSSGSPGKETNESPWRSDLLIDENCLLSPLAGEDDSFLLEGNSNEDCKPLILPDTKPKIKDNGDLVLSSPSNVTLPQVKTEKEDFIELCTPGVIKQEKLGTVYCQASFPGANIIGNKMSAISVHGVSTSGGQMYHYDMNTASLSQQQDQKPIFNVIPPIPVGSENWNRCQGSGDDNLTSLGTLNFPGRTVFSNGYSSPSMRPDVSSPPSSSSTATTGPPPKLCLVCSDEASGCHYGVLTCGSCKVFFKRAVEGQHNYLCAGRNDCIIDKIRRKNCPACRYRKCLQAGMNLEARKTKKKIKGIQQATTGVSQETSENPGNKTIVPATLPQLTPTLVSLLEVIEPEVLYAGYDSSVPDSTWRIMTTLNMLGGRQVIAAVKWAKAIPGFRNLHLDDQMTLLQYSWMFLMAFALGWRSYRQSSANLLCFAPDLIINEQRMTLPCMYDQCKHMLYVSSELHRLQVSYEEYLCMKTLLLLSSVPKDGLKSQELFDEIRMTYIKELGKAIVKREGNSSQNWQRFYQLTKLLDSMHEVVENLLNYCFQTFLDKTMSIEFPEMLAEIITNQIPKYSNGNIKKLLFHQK

[3] = system: SXR; test: Activation of SXR in transfection-based assays; set-up: activation of SXR: dose or concentration left out as unconfirmed
Protocol: To characterize its response properties, a large variety of steroids, including intermediate and major products of known steroid biosynthetic pathways were tested.

[4] = target: T2, SXR (Homo sapiens, UniProt O75469); test: Activation of SXR by thiazolidinediones in hepatocyte cultures and transgenic animals
T2 sequence (O75469 1-434): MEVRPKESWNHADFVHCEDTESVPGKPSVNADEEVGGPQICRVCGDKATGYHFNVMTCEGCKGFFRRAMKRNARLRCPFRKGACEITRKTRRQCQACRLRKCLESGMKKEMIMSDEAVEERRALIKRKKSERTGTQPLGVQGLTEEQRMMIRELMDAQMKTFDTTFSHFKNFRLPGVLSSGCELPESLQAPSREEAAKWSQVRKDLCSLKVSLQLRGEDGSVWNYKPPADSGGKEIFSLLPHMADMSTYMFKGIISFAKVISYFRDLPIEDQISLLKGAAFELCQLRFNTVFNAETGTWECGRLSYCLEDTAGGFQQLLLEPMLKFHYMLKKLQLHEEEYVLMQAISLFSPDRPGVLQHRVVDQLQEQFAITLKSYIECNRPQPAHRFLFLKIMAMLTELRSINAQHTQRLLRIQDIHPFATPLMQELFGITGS
Protocol: as §1
The animals were allowed free access to food and water at all times. […] When necessary, mice were treated with a single intraperitoneal injection of DEX (50 mg/kg), PCN (40 mg/kg), or CTZ (50 mg/kg).

[5] = target: T3, CAR (Mus musculus, UniProt O35627); test: tk-UGT1A6/DR-3 luciferase reporter transfected into CV-1 cells with CAR expression vector; format: cell-based; details: tk-UGT1A6/DR-3-Luc
T3 construct: expressed in transfected cells; host or cells: monkey kidney CV-1 cells
T3 sequence (O35627 1-358): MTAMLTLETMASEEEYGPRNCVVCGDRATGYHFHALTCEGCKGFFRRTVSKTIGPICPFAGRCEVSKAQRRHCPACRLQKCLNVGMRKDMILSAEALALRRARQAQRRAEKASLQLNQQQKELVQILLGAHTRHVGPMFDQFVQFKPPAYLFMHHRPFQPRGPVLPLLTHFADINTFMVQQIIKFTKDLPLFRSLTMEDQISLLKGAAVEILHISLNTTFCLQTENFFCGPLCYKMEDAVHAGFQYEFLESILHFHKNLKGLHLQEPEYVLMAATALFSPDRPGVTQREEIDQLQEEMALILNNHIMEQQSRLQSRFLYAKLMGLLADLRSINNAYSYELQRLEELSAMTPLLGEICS
Text: The reporter gene comprises a thymadine kinase (TK) linked to UGT1A6/DR-3 linked to a luciferace (LUC).
In an exemplary assay, a luciferase reporter gene containing the UGT1A6/DR-3 upstream of a minimal thymidine kinase (tk) promoter was constructed and transfected into monkey kidney CV-1 cells together with expression vectors for SXR, PXR, or CAR.
In FIG. 2, the tk-UGT1A6/DR3-Luc construct comprises a UGT inverted or direct repeat and/or a nuclear receptor binding site such that activation of the response element results in transcription of UGT. […] The response element can also comprise an inverse repeat of a suitable half site separated by a 6 nucleotide spacer, or an inverse repeat of a variant thereof, separated by a 6 nucleotide spacer.

[6] = target: T4, PXR (Mus musculus, UniProt O54915)
T4 sequence (O54915 1-431): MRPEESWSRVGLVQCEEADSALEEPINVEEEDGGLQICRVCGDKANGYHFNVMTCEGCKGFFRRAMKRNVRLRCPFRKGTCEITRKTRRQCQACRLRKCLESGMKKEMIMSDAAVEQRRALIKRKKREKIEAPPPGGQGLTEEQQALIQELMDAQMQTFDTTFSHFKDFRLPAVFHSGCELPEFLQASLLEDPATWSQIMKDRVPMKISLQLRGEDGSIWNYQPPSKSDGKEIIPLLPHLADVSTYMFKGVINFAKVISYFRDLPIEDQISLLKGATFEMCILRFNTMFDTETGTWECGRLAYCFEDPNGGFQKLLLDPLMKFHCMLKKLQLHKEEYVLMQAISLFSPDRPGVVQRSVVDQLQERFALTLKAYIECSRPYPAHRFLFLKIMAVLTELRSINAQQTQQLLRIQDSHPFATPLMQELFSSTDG

[7] = target: T4, PXR; test: Activation of mouse receptor PXR by the panel of compounds
[8] = clinical trials, 2510 patients; alanine aminotransferase level > three times the upper limit of normal; cited from earlier work
[9] = transfection-based assays, steroids tested

Compound: Cc1ccc2cc3c(ccc4ccccc43)c3c2c1CC3 [3MC, 3-methylcholanthrene]
- activation of CYP3A23 cellular promoter reporter [1]: fail to activate or behave as poor activators

Compound: C[C@]12CCC(=O)C[C@@H]1CC[C@@H]1[C@@H]2[C@@H](O)C[C@]2(C)[C@@H](C(=O)CO)CC[C@@H]12 [5α]
- activity on GR [2]: slightly active
- activation of SXR by products of steroid catabolism [3]: effective SXR activators

Compound: C[C@]12CCC(=O)C[C@H]1CC[C@@H]1[C@@H]2[C@@H](O)C[C@]2(C)[C@@H](C(=O)CO)CC[C@@H]12 [5β]
- activity on GR [2]: completely inactive
- activation of SXR by products of steroid catabolism [3]: effective SXR activators

Compound: C[C@]12C[C@H](O)[C@H]3[C@@H](C[C@@H](O)C4=CC(=O)CC[C@@]43C)[C@@H]1CC[C@@H]2C(=O)CO [6β-hydroxy corticosterone]
- activity on GR [2]: slightly active
- activation of SXR by products of steroid catabolism [3]: virtually inactive; also recorded: virtual inactivity

Compound: CN(CCOc1ccc(CC2SC(=O)NC2=O)cc1)c1ccccn1 (stereo not drawn) [BRL, Rosiglitazone]
- activation of SXR by TZDs ([4]; hepatocyte cultures and transgenic animals): fail to activate SXR

Compound: CC/C(=C(/CC)c1ccc(O)cc1)c1ccc(O)cc1 [DES, diethylstilbestrol]
- activation of SXR by compounds known to induce CYP3A4 [3]: most potent activators

Compound: C[C@]12CC[C@H](O)CC1=CC[C@@H]1[C@@H]2CC[C@]2(C)C(=O)CC[C@@H]12 [DHEA, dehydroepiandrosterone]
- SXR activation of DR-3, DR-4 and DR-5 elements [3]: intermediate group

Compound: Clc1cnc(Oc2ccc(Oc3ncc(Cl)cc3Cl)cc2)c(Cl)c1 [TCPOBOP, 1,4-bis[2-(3,5-dichloropyridyloxy)] benzene]
- effect on CAR activation of UGT reporter [5]: potentiated

Compound: C[C@]12CCC(=O)C=C1CC[C@@H]1[C@@H]2[C@@H](O)C[C@]2(C=O)[C@@H](C(=O)CO)CC[C@@H]12 [aldosterone]
- activation of SXR [3]: inactive
- SXR activation of DR-3, DR-4 and DR-5 elements ([3]; series of transfections): little response

Compound: C[C@@]12CCC[C@H]1[C@@H]1CC[C@H]3C[C@@H](O)CC[C@]3(C)[C@H]1CC2 [androstanol]
- effect on CAR activation of UGT reporter [5]: inhibited

Compound: C[C@]12C[C@H](O)[C@H]3[C@@H](CCC4=CC(=O)CC[C@@]43C)[C@@H]1CC[C@@H]2C(=O)CO [corticosterone]
- activation of SXR by compounds known to induce CYP3A4 [3]: most potent activators
- SXR activation of DR-3, DR-4 and DR-5 elements ([3]; series of transfections): among the best activators
- activation of SXR [3, 9]: most potent and efficacious activator; also recorded: activated; also recorded: strongest known activator

Compound: C[C@]12CCC(=O)C=C1CC[C@@H]1[C@@H]2[C@@H](O)C[C@@]2(C)[C@H]1CC[C@]2(O)C(=O)CO [cortisol]
- SXR activation of DR-3, DR-4 and DR-5 elements ([3]; series of transfections): little response

Compound: C[C@]12CCC(=O)C=C1CC[C@@H]1[C@@H]2C(=O)C[C@@]2(C)[C@H]1CC[C@]2(O)C(=O)CO [cortisone]
- SXR activation of DR-3, DR-4 and DR-5 elements ([3]; series of transfections): intermediate group

Compound: O=c1oc2cc(O)ccc2c2oc3cc(O)ccc3c12 [coumestrol]
- activation of SXR by compounds known to induce CYP3A4 [3]: most potent activators

Compound: C[C@]12CCC(=O)C[C@@H]1CC[C@@H]1[C@@H]2CC[C@]2(C)[C@@H](O)CC[C@@H]12 [dihydrotestosterone]
- SXR activation of DR-3, DR-4 and DR-5 elements [3]: among the best activators
- activation of SXR [3]: remarkably effective activators

Compound: C[C@]12CC[C@@H]3c4ccc(O)cc4CC[C@H]3[C@@H]1CC[C@@H]2O [estradiol, 17β-estradiol]
- induction of CYP3A23 cellular promoter reporter [1]: significant induction
- activation of SXR by compounds known to induce CYP3A4 [3]: most potent activators
- SXR activation of DR-3, DR-4 and DR-5 elements ([3]; series of transfections): among the best activators
- activation of SXR [3, 9]: remarkably effective activators
- activation of PXR [6]: similarly activated

Compound: CCC1(c2ccccc2)C(=O)NC(=O)NC1=O [phenobarbital]
- activation of CYP3A23 cellular promoter reporter [1]: fail to activate or behave as poor activators
- induction of CYP3A23 cellular promoter reporter [1]: significant induction

Compound: CC(=O)[C@H]1CC[C@H]2[C@@H]3CC=C4C[C@@H](O)CC[C@]4(C)[C@H]3CC[C@]12C [pregnenolone]
- activation of CYP3A23 cellular promoter reporter [1]: fail to activate or behave as poor activators
- induction of CYP3A23 cellular promoter reporter [1]: significant induction
- SXR activation of DR-3, DR-4 and DR-5 elements ([3]; series of transfections): among the best activators

Compound: CC(=O)[C@H]1CC[C@H]2[C@@H]3CCC4=CC(=O)CC[C@]4(C)[C@H]3CC[C@]12C [progesterone]
- SXR activation of DR-3, DR-4 and DR-5 elements ([3]; series of transfections): among the best activators
- activation of SXR [3, 9]: activated

Compound: C[C@]12CC[C@H]3[C@@H](CCC4=CC(=O)CC[C@@]43C)[C@@H]1CC[C@@H]2O [testosterone]
- activation of PXR [7]: similarly activated
- activation of SXR [3]: activated

Compound: Cc1c(C)c2c(c(C)c1O)CCC(C)(COc1ccc(CC3SC(=O)NC3=O)cc1)O2 (stereo not drawn) [troglitazone]
- activation of SXR by TZDs [4]: activate SXR
- troglitazone-induced hepatotoxicity, share of patients [8]: 1.9%

Compound: estrogen
- activation of SXR [3, 9]: activated
